Columns and labels:
[1] = molecular target: T1, human OX2 receptors (Homo sapiens, UniProt O43614); experiment: antagonistic activity against human OX2 receptor, calcium fluorimetry (Fluo-4NW) in transfected HEK-293 cells; assay type: cell-based; details: HEK-293 cells transfected with human recombinant OX2, activated with orexin-B 10 nM; pKb = co-logarithm of apparent dissociation constant (modified Cheng Prusoff)
T1 construct: expressed in transfected cells; host or cells: HEK-293 cells
T1 sequence (O43614 1-444): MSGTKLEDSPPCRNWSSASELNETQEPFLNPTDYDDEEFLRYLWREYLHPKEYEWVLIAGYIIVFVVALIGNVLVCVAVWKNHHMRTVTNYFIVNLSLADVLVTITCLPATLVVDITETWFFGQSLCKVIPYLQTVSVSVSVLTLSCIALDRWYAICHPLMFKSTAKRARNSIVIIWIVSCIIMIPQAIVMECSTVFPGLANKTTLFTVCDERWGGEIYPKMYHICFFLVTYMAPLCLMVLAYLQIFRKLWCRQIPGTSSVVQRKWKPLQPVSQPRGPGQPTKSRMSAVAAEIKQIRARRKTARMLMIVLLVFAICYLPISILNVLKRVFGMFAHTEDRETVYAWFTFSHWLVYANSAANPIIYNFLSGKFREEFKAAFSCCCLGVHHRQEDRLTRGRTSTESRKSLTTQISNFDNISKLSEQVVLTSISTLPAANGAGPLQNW
Method: (§1) In a typical experiment, the antagonistic activity against human OX1 and OX2 receptors is determined by using CHO e HEK-293 cells transfected with human recombinant OX1 and OX2 receptors respectively, seeded at density of 2 and 3×10^4 cells/well respectively in a 96 fluorimetry well plate. Thus the plate was loaded with the calcium dye (Fluo-4NW/probenecid in HBSS, Hepes 20 mM, pH 7,4; Invitrogen) at 37° C. for 60 min. Afterward the temperature was equilibrated at 22° C. for 15 min and the [Ca2+]i measured directly on the plate by using a fluorescent plate reader (CellLux Perkin Elmer).
(§2) Invention compounds were dissolved in DMSO, diluted in HBSS (DMSO, 0.3% final) and added to the wells. After 5 min CHO cells were activated with orexin-A, 3 nM while HEK-293 cells were activated with orexin-B, 10 nM.
(§3) The compounds, dissolved in DMSO and diluted in the medium (DMSO, 0.3% final), have been analysed in the 1 nM-1 μM concentration range (every concentration in duplicate). The antagonistic activity has been expressed as pKb (co-logarithm of the apparent dissociation constant calculated by using the modified Cheng Prusoff equation).
(§4) The results are expressed as percent of control specific […] response ((measured specific response/control specific agonist response)×100) obtained in the presence of the test compounds.
(§5) The IC50 values (concentration causing a half-maximal inhibition of the control specific agonist response) were determinated by non-linear regression analysis of the concentration curves generated with mean replicate values using hill equation curve fitting. The IC50 values are obtained by the arithmetical mean of at least two experiments.

[2] = molecular target: T2, human OX1 receptors (Homo sapiens, UniProt O43613); experiment: antagonistic activity against human OX1 receptor, calcium fluorimetry (Fluo-4NW) in transfected CHO cells; assay type: cell-based; details: CHO cells transfected with human recombinant OX1, activated with orexin-A 3 nM; pKb = co-logarithm of apparent dissociation constant (modified Cheng Prusoff)
T2 construct: expressed in transfected cells; host or cells: CHO cells
T2 sequence (O43613 1-425): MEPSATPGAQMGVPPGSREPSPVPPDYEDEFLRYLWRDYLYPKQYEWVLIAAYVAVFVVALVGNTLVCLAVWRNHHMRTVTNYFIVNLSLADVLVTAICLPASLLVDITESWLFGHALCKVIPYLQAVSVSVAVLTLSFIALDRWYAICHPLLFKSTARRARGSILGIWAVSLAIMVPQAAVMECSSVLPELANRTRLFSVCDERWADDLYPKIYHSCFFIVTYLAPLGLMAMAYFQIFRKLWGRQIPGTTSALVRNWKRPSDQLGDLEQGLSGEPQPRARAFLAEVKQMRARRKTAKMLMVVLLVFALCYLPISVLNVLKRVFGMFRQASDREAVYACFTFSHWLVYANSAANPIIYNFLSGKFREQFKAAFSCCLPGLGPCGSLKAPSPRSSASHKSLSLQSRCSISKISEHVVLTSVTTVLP
Method: as §1, §2, §3, §4, §5

Kb [1] [nM] | Kb [2] [nM] | SMILES
200 | 5.01 | O=C(c1cc(Cl)ccc1-c1ncccn1)N1[C@H](CNc2ccc(C(F)(F)F)cn2)CC[C@@H]2C[C@@H]21 [Compound 4b, (5-chloro-2-(pyrimidin-2-yl)phenyl)((1S,3S,6R)-3-(((5-(trifluoromethyl)pyridin-2-yl)amino)methyl)-2-azabicyclo[4.1.0]heptan-2-yl)methanone]
12.6 | 1.58 | Cc1ccc(-c2ncccn2)c(C(=O)N2[C@H](COc3ccc(C(F)(F)F)cn3)CC[C@H]3C[C@H]32)c1 [Compound 3g, (5-methyl-2-(pyrimidin-2-yl)phenyl)((1R,3S,6S)-3-(((5-(trifluoromethyl)pyridin-2-yl)oxy)methyl)-2-azabicyclo[4.1.0]heptan-2-yl)methanone]
6.31 | 1.26 | Cc1nc(C(=O)N2[C@H](CNc3nccc(C(F)(F)F)n3)CC[C@H]3C[C@H]32)c(-c2ccccc2)s1 [Compound 2c, (2-methyl-5-phenylthiazol-4-yl)((1R,3S,6S)-3-(((4-(trifluoromethyl)pyrimidin-2-yl)amino)methyl)-2-azabicyclo[4.1.0]heptan-2-yl)methanone]
50.1 | 2.51 | Cc1nc(C(=O)N2[C@H](CNc3ccc(C(F)(F)F)cn3)CC[C@@H]3C[C@@H]32)c(-c2ccccc2)s1 [Compound 5a, (2-methyl-5-phenylthiazol-4-yl)((1S,3S,6R)-3-(((5-(trifluoromethyl)pyridin-2-yl)amino)methyl)-2-azabicyclo[4.1.0]heptan-2-yl)methanone]
20 | 1.26 | O=C(c1cc(Cl)ccc1-c1ncccn1)N1[C@H](COc2ccc(C(F)(F)F)cn2)CC[C@H]2C[C@H]21 [Compound 3d, (5-chloro-2-(pyrimidin-2-yl)phenyl)((1R,3S,6S)-3-(((5-(trifluoromethyl)pyridin-2-yl)oxy)methyl)-2-azabicyclo[4.1.0]heptan-2-yl)methanone]
2.51 | 2.51 | Cc1nc(C(=O)N2[C@H](CNc3ccc(C(F)(F)F)cn3)CC[C@H]3C[C@H]32)c(-c2ccccc2)s1 [Compound 2a, (2-methyl-5-phenylthiazol-4-yl)((1R,3S,6S)-3-(((5-(trifluoromethyl)pyridin-2-yl)amino)methyl)-2-azabicyclo[4.1.0]heptan-2-yl)methanone]
50.1 | 1 | Cc1ccc(-c2ncccn2)c(C(=O)N2[C@H](COc3ccc(Cl)cn3)CC[C@H]3C[C@H]32)c1 [Compound 3f, ((1R,3S,6S)-3-(((5-chloropyridin-2-yl)oxy)methyl)-2-azabicyclo[4.1.0]heptan-2-yl)(5-methyl-2-(pyrimidin-2-yl)phenyl)methanone]

Further lines, the compound ahead of its results:

SMILES | Kb [1] [nM] | Kb [2] [nM]
O=C(c1cc(Cl)ccc1-c1ncccn1)N1[C@H](CNc2nccc(C(F)(F)F)n2)CC[C@H]2C[C@H]21 [Compound 1g, (5-chloro-2-(pyrimidin-2-yl)phenyl)((1R,3S,6S)-3-(((4-(trifluoromethyl)pyrimidin-2-yl)amino)methyl)-2-azabicyclo[4.1.0]heptan-2-yl)methanone] | 5.01 | 1
N#Cc1ccc(-c2ncccn2)c(C(=O)N2[C@H](CNc3ccc(Cl)cn3)CC[C@H]3C[C@H]32)c1 [Compound 1i, 3-((1R,3S,6S)-3-(((5-chloropyridin-2-yl)amino)methyl)-2-azabicyclo[4.1.0]heptane-2-carbonyl)-4-(pyrimidin-2-yl)benzonitrile] | 20 | 1.58
N#Cc1ccc(-c2ncccn2)c(C(=O)N2[C@H](CNc3nccc(C(F)(F)F)n3)CC[C@H]3C[C@H]32)c1 [Compound 1j, 4-(pyrimidin-2-yl)-3-((1R,3S,6S)-3-(((4-(trifluoromethyl)pyrimidin-2-yl)amino)methyl)-2-azabicyclo[4.1.0]heptane-2-carbonyl)benzonitrile] | 20 | 5.01

Source: patent US9174977B2, “2-azabicyclo[4.1.0]heptane derivatives as orexin receptor antagonists for the treatment of certain disorders” (Rottapharm Biotech S.r.l., priority 2012, dated 2015)
